Assay results reported in patent publication US20020151581A1, “Glucose and lipid lowering compounds” (priority 1998, published 2002).
Where two headings read alike, the source gives them in different places. Marks after values point to notes of the source that are not given here.

What was measured:
C57/B16J lean mice = assay: Circulating free fatty acid levels in overnight-fasted normal mice; format: in vivo; conditions: 50 mg/kg daily intraperitoneal for 2 weeks
Method: (§1) Male, C57/B16J lean mice were purchased from Jackson Laboratories, Bar Harbor, Me. Animals were housed and maintained in accordance with NIH guidelines and had free access to water and food ad libitum. Test compounds of the present invention were suspended in 0.25% methylcellulose (w/v in distilled water) and stored at −20° C. in single use aliquots. Animals received a daily dose via the intraperitoneal route of administration for 2 weeks. After the last dose, animals were fasted overnight. On the following morning, a 250 μl blood sample was drawn via the retro-orbital sinus into a tube containing an EDTA-saline solution and centrifuged at 1,200×g for 15 min. The plasma fraction was analyzed for non-esterified free fatty acid content (NEFA) using the NEFA C diagnostic kit (WAKO Chemicals USA, Richmond, Va.), and glycerol with the triglyceride GPO-Trinder diagnostic kit (Sigma) modified for use on a BM Hitachi 911 clinical chemistry analyzer. P-values from a student's t-test were calculated using the Prizm software data analysis program (Graphpad, Sorrento Calif.).

Candida rugosa lipase = assay: Inhibition of Candida rugosa lipase toward emulsified triolein substrate PC/PI; format: biochemical
Method: Recombinant hormone-sensitive lipase protein isolated from a bacterial expression vector was pre-incubated with a compound of the invention (e.g., 100 μM) prior to the addition of substrate, emulsified triolein phosphatidylcholine/phosphatidylinositol (PC/PI), to initiate the reaction. At various time points, aliquots of the reaction were taken, and the level of glycerol used as an index of enzyme activity. Pharmacological specificity is determined by incubating test compound with other mammalian and non-mammalian lipase enzyme systems to assess inhibition of activity. The assay was conducted using triolein concentrations from 42 μM to 835 μM.

KK/Ay mice = assay: Effects in fasted KK/Ay mice (plasma lipids and glucose); format: in vivo; conditions: daily intraperitoneal for 2 weeks
Method: as §1
Male, KK/Ay mice were purchased from Clea Japan USA, Pennington, N.J. At 4 months of age, animals received daily intraperitoneal administration of 2α-benzoyloxy-5,7,8αH-eudesma-4(15), 11(13)-dien-8,12-olide for 2 weeks. As described in Example 10, fasting plasma NEFA values were obtained. In addition, cholesterol and triglycerides were measured using BM reagent assay kits on a BM Hitachi 911 clinical chemistry analyzer. […] Plasma glucose levels were measured using a Boehringer Mannheim reagent assay kits on a Boehringer Mannheim Hitachi 911 clinical chemistry w analyzer.

rabbits = conditions: cited from earlier work

C=C1C(=O)O[C@@H]2C[C@@]3(C)C[C@@H](OC(=O)c4ccccc4)CC(=C)[C@@H]3C[C@H]12 [2α-benzoyloxy-5,7,8αH-eudesma-4(15),11(13)-dien-8,12-olide]
NEFA (fasting plasma) (C57/B16J lean mice; vehicle 1.108): 0.808 mM
Glycerol (fasting plasma) (C57/B16J lean mice; vehicle 36): 28^b mg/dl
% reduction NEFA (C57/B16J lean mice; vs vehicle): 27%
inhibition of Candida rugosa lipase (in words) (Candida rugosa lipase; emulsified triolein substrate PC/PI): did not inhibit enzyme activity
% Inhibition (Candida lipase) (Candida rugosa lipase; triolein substrate 42 μM): 40%
Candida Lipase + test compound (enzyme activity) (Candida rugosa lipase; triolein substrate 42 μM): 3.21
% Inhibition (Candida lipase) (Candida rugosa lipase; triolein substrate 83.5 μM): −12%
Candida Lipase + test compound (enzyme activity) (Candida rugosa lipase; triolein substrate 83.5 μM): 11.59
% Inhibition (Candida lipase) (Candida rugosa lipase; triolein substrate 167 μM): 6.3%
Candida Lipase + test compound (enzyme activity) (Candida rugosa lipase; triolein substrate 167 μM): 14.14
% Inhibition (Candida lipase) (Candida rugosa lipase; triolein substrate 334 μM): 3.6%
Candida Lipase + test compound (enzyme activity) (Candida rugosa lipase; triolein substrate 334 μM): 22.68
% Inhibition (Candida lipase) (Candida rugosa lipase; triolein substrate 501 μM): −1.7%
Candida Lipase + test compound (enzyme activity) (Candida rugosa lipase; triolein substrate 501 μM): 60.13
% Inhibition (Candida lipase) (Candida rugosa lipase; triolein substrate 668 μM): −1.1%
Candida Lipase + test compound (enzyme activity) (Candida rugosa lipase; triolein substrate 668 μM): 93.59
% Inhibition (Candida lipase) (Candida rugosa lipase; triolein substrate 835 μM): 1.0%
Candida Lipase + test compound (enzyme activity) (Candida rugosa lipase; triolein substrate 835 μM): 89.71
fasting plasma NEFA (KK/Ay mice): significant reductions
plasma cholesterol (KK/Ay mice): significant reductions
plasma glycerol (KK/Ay mice): significant reductions
plasma triglycerides (KK/Ay mice): significant reductions
fasting plasma glucose level (KK/Ay mice; control mice 184±24 mg/dL, p <0.01): 90 ± 29 mg/dL

C=C1C(=O)O[C@@H]2C[C@@]3(C)CCC[C@H](C)C3=C[C@H]12 [alantolactone, 4,7,8αH-eudesma-5(6), 11(13)-dien-8,12-olide]
effect on blood glucose (rabbits; moderate dose): induce hypoglycemia
effect on hyperglycemia induced by food (rabbits; rabbit, in vivo): inhibit hyperglycemia induced by food
effect on blood glucose (rabbits; rabbits, high dose): induce hyperglycemia
